Results published in patent US20230107538A1, “CYCLOALKYL-CONTAINING CARBOXYLIC ACIDS AND USES THEREOF” (LIMINAL BIOSCIENCES LIMITED, priority 2019, published 2023).

What was measured:
[1] = target: T1, human PPARα ligand binding domain (LBD) (Homo sapiens, UniProt Q07869); experiment: Cell-based GAL4 PPAR transactivation assay in HEK293 cells, PPARα; conditions: 24 h
T1 construct: human PPARα (S167-Y468); expressed in transfected cells; host or cells: HEK293
T1 sequence (Q07869 167-468): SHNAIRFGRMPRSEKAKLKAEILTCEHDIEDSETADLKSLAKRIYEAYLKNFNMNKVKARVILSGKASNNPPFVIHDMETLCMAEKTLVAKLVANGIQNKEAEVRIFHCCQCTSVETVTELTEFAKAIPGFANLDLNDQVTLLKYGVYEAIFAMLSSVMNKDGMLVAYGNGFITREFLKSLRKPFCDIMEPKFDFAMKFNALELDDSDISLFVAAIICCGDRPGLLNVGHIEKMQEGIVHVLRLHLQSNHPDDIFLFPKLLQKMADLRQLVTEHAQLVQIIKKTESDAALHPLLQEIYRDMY
Protocol: (§1) The peroxisome proliferator-activated receptors (PPARs), PPARα, PPARδ, and PPARγ are ligand-dependent transcription factors that control expression of several key metabolism-associated genes. The transcriptional activity of representative compounds of formula I to these receptors was assessed using a cell-based GAL4 transactivation assay in HEK293 cells transfected with either PPARα, PPARδ, or PPARγ ligand binding domain (LBD), and was compared to that of the full control agonists GW7647 (PPARα), GW0742 (PPARδ), and rosiglitazone (PPARγ).
(§2) Plasmids: The hinge region and ligand binding domain (LBD) from human PPARα (S167-Y468), PPARδ (S139-Y440) and PPARγ (S176-Y477) were PCR-amplified from a PPARα cDNA clone (cDNA Resource Center, http://www.cdna.org) or from PPARδ1 and PPARγ1 LBD gBlocks™ gene fragments (Integrated DNA Technologies). The PPAR LBD PCR products were inserted in frame with the GAL4 DNA binding domain in the pFN26A(BIND)-hRlu-neo Flexi vector (Promega) at SgfI and PmeI sites to generate GAL4-PPAR-Rluc.
(§3) Cell-based PPAR transactivation assay. HEK293 cells were co-transfected with pGL4.35[luc2P/9XGAL4UAS/Hygro] (Promega) and GAL4-PPAR-Rluc plasmids, and after 24 h of incubation were treated with compounds for 24 h. Luciferase activity was determined with the Dual Glo™ luciferase assay (Promega). Firefly luminescence was normalized to the constitutively expressed Renilla luminescence, and results expressed as fold induction of vehicle control or percentage of reference agonist maximal activity.

[2] = target: T2, human PPARγ ligand binding domain (LBD) (Homo sapiens, UniProt P37231); experiment: Cell-based GAL4 PPAR transactivation assay in HEK293 cells, PPARγ; conditions: 24 h
T2 construct: PPARγ (S176-Y477); host or cells: HEK293
T2 sequence (P37231 176-477 isoform P37231-2): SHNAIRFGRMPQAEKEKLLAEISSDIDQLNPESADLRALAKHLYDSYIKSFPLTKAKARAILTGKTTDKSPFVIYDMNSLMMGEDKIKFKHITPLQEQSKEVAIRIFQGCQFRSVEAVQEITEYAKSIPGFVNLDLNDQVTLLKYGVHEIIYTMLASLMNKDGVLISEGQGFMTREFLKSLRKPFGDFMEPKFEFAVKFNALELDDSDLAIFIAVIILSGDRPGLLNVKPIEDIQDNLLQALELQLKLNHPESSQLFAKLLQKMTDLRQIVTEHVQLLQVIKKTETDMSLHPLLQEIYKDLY
Protocol: as §1, §2, §3

[3] = target: T3, human PPARδ ligand binding domain (LBD) (Homo sapiens, UniProt Q03181); experiment: Cell-based GAL4 PPAR transactivation assay in HEK293 cells, PPARδ; conditions: 24 h
T3 construct: PPARδ (S139-Y440); host or cells: HEK293
T3 sequence (Q03181 139-441 limits assumed): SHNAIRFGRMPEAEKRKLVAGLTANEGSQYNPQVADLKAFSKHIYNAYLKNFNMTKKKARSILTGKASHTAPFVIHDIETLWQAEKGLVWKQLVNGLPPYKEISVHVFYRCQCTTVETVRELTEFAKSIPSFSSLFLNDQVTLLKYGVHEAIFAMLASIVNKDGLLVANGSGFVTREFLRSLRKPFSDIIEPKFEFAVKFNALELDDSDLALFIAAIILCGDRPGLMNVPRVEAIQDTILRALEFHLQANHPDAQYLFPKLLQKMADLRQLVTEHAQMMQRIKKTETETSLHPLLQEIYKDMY
Protocol: as §1, §2, §3

| Structure (SMILES) | PPARα (GAL4 reporter) % efficacity relative to GW7647 [1] | PPARγ (GAL4 reporter) % efficacity relative to rosiglitazone [2] | PPARδ (GAL4 reporter) % efficacity relative to GW0742 [3] | melting point |
| --- | --- | --- | --- | --- |
| CCCCCCC1CC1C(=O)C(=O)[O-].[Na+] (stereo not shown) | 34% | 2% | −3% |  |
| CC1(C)CC1CCCCC/C=C/C(=O)[O-].[Na+] (stereo not shown) | 10% | 1% | 30% |  |
| CCCCCCC1C(CC(=O)[O-])C1(Br)Br.[Na+] (stereo not shown) [Compound II, Sodium 2-(2,2-dibromo-3-hexylcyclopropyl)acetate] |  |  |  | 108 to 111 °C |
| CCCCCCCC1CC1C(=O)[O-].[Na+] (stereo not shown) | 90% | 16% | 4% |  |
